Data as given in patent US20260364057A1, “AMIDE COMPOUND, AND COMPOSITION AND USE THEREOF” (SIMCERE ZAIMING PHARMACEUTICAL CO., LTD., priority 2022, published 2026).
pIC50: −log10 of the molar value.

Key:
OVCAR3 cells = test: Inhibition of proliferation of OVCAR-3 cells (Cell-Titer Glo); format: cell-based; details: Homo sapiens, OVCAR-3, 72 h, 3 days, 1000 cells/well
From the text: Test Example 2. Test on Inhibition of Proliferation of OVCAR-3 Cells by Compounds of Present Disclosure
Cell and material: The human ovarian cancer cell line OVCAR3 was purchased from ATCC (Cat. No. HTB-161™), RPMI 1640 medium (Gibco #A1049101), penicillin-streptomycin (Gibco #15140122), and 0.25% Trypsin-EDTA (Gibco #25200056) were purchased from Gibco (U.S.), bovine insulin (Yeasen #40107ES60) was purchased from Yeasen, 384-well plates (Corning #CLS3765) was purchased from Corning (U.S.), and Cell-Titer Glo reagent (Promega #G7568) was purchased from Promega (U.S.).
Cell culture: OVCAR3 cells were cultured in RPMI 1640 complete medium (RPMI 1640 medium containing 20% fetal bovine serum, […] bovine insulin, and 1% penicillin-streptomycin) in an incubator (37 °C, 5% CO2), and the cells could be used in experiments when in the logarithmic growth phase.
Cell proliferation activity test: The Cell-Titer Glo reagent was used to test the compound for inhibition of proliferation of the OVCAR3 cell strain. The compound formulated with DMSO and pure DMSO (control) were each added to a 384-well plate using an Echo instrument; the compound was subjected to 3-fold serial dilution starting from 30 μM to obtain 11 concentration points, and the volume of the compound or DMSO added was 100 nL.
OVCAR3 cells were digested and resuspended in RPMI 1640 complete medium, and the suspension was added to a 384-well plate (1000 cells/50 μL/well) to be well mixed with the compound. The mixture was incubated in an incubator (37 °C, 5% CO2) for 3 days. The Cell-Titer Glo reagent was added at 25 µL/well, and the resulting mixture was well mixed by shaking and then incubated for 10 min. The Cell-Titer Glo readings were measured with a Multimode Plate Reader (brand: PerkinElmer; model: SIC-PV-018).
A negative control group (Bottom) was set, and the negative control group was medium wells with 0.2% DMSO added and was defined as 100% proliferation inhibition; the positive control group (Top) was OVCAR3 cell wells with 0.2% DMSO added.
The percent proliferation inhibition (% Inhibition) was calculated, and the curves were fit using the four-parameter equation, Y=Bottom+(Top−Bottom)/(1+(IC50/X)^HillSlope), to obtain the proliferation inhibition IC50 of the compound. • Percent inhibition: % Inhibition=(1−(Signal−Bottom)/(Top−Bottom))×100%. • Signal: Cell-Titer Glo reading of wells with compound added; • Bottom: Cell-Titer Glo reading of negative control wells; • Top: Cell-Titer Glo reading of positive control wells.

Human KIF18A (1-376aa) = molecular target: T1, Human KIF18A (1-376aa) (Homo sapiens, UniProt Q8NI77); test: KIF18A enzyme activity assay (ADP-Glo); format: biochemical; details: microtubule 50 μg/mL, ATP (Km 70 μM), room temperature, 15 min, read-out: KIF18A inhibitory activity IC50
T1 construct: Human KIF18A (1-376aa) protease used in the experiments; purchased Shanghai Panchao Biotechnology Co., Ltd
T1 sequence (Q8NI77 1-376): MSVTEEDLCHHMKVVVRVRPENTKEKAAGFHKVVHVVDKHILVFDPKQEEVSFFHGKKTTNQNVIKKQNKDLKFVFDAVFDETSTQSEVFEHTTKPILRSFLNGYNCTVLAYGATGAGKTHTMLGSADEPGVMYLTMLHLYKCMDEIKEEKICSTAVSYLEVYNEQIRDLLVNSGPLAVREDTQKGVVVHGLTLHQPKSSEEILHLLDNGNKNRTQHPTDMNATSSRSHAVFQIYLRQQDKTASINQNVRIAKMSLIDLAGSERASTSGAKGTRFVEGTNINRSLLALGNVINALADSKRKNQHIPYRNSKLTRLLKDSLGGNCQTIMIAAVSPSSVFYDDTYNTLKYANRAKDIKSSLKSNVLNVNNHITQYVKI
Method: Test Example 1: KIF18A Enzyme Activity Assay
Based on the ADP-Glo™ Kinase Assay, the ADP amount generated in the reaction was detected to reflect the enzyme activity of KIF18A.
Human KIF18A (1-376aa) […] used in the experiments, expressed by Shanghai Panchao Biotechnology Co., Ltd., was stored at −80 °C (no more than 5 freeze-thaw cycles).
The assay kit (ADP-Glo™ Kinase Assay) was purchased from Promega (Cat. No. V9101) and stored at −30 °C. The kit detects the enzyme activity by measuring ADP generated in enzyme reaction. The KIF18A enzyme and ATP generate ADP. The remaining ATP in this reaction is consumed by the ADP-Glo reagent, while the ADP generated by the KIF18A enzyme reaction is converted back to ATP by the assay reagent. The ATP then reacts with luciferin in the presence of Ultra-Glo™ luciferase, producing luminescence. The luminescent signal is positively correlated with the activity of the KIF18A enzyme.
Compounds were each subjected to 3-fold serial dilution starting from 10 μM to obtain 10 concentration points. The compounds and pure DMSO (control) were pipetted into wells of a 384-well plate using an Echo instrument, and the total volume of compound and DMSO was 100 nL; sample concentrations of gradient dilution were obtained by the instrument based on different ratios. Preparation of a KIF18A enzyme reaction buffer: […], 10 mM MgCl2, 0.01% Pluronic F-68, 1 μM Taxol, and 50 μg/mL Microtubule. KIF18A and the enzyme reaction buffer were mixed, and then the mixed solution was added to the 384-well plate and incubated at room temperature for 15 min. ATP (Km 70 μM) was then added to the mixed solution, and the mixed solution was incubated at room temperature for 15 min. 10 μL of ADP-Glo™ Reagent was well mixed with 10 μL of the mixed solution, and the mixture was incubated at room temperature for 40 min. Finally, 20 μL of ADP-Glo™ Detection Reagent was added, and the mixture was incubated at room temperature for 30 min. The chemiluminescent signal in each well was measured using an Envision plate reader (PerkinElmer, emission wavelength: 400-700 nm). In the experiment, 1 column of wells with no compound and no enzyme (chemiluminescence value was taken as [RLU]background) and 1 column of wells with enzyme but no compound (chemiluminescence value was taken as [RLU]enzyme) were provided. The chemiluminescence value of the compound adding group was taken as [RLU]cpd. The inhibition rate of the compound on […] was calculated according to the following equation: inhibition rate (%)=([RLU]enzyme−[RLU]cpd)/([RLU]enzyme−[RLU]background)×100%, and the inhibitory activity IC50 value of the compound on the enzyme activity was calculated using a four-parameter Logistic Model method. In the following equation, x represents the logarithmic form of the concentration of compound, and f (x) represents an effect value (inhibition rate of enzyme activity at the concentration): F(x)=(A+((B−A)/(1+((C/x)^D)))). A. B, C, and D are four parameters.

SMILES | pIC50 (OVCAR3 cells) | pIC50 (Human KIF18A (1-376aa))
CCS(=O)(=O)Nc1ccc(C(=O)Nc2cc3c(c(N4CCC(F)(F)CC4)c2)CCC3)c(N2CCC3(CC2)CC3)c1 [Compound 73] | 7.42 | > 6.70
O=C(Nc1cccc2c1nc1n2CC2CCC1C2(F)F)c1ccc(NS(=O)(=O)CCO)cc1N1CCC2(CC1)CC2 (centres unmarked) [Compound 74] | 7.62 | > 6.70
O=C(Nc1cccc2c1nc1n2CC(C(F)(F)F)C1)c1ccc(NS(=O)(=O)CCO)cc1N1CCC2(CC1)CC2 (centres unmarked) [Compound 76] | 7.37 | > 6.70
O=C(Nc1cccc2c1nc1n2C2CCC1OC2)c1ccc(NS(=O)(=O)CCO)cc1N1CCC2(CC1)CC2 (centres unmarked) [Compound 77] | 7.60 | > 6.70
O=C(Nc1cccc2c3n(nc12)CCCCC3)c1ccc(NS(=O)(=O)CCO)cc1N1CCC2(CC1)CC2 [Compound 78] | 7.34 | > 6.70
O=C(Nc1cc(N2CCC(F)(F)CC2)c2nccn2c1)c1ccc(NS(=O)(=O)CCO)cc1N1CCC2(CC1)CC2 [Compound 80] | 7.62 | > 6.70
CC1(C)Cc2cc(NC(=O)c3ccc(NS(=O)(=O)CCO)cc3N3CCC4(CC3)CC4)cc(N3CCC(F)(F)CC3)c2O1 [Compound 82] | 7.00 | > 6.70
O=C(Nc1cccc2c1nc1n2C2COC1C2)c1ccc(NS(=O)(=O)CCO)cc1N1CCC2(CC1)CC2 (centres unmarked) [Compound 83] | 7.07 | > 6.30
CC1(C)Cn2c(nc3c(NC(=O)c4ccc(NS(=O)(=O)CCO)cc4N4CCC5(CC4)CC5)cccc32)CO1 [Compound 87] | 7.51 | > 6.70
O=C(Nc1cccc2c1nc1n2CC2CC1C2(F)F)c1ccc(NS(=O)(=O)CCO)cc1N1CCC2(CC1)CC2 (centres unmarked) [Compound 88] | 7.01 | > 6.70
N#Cc1ccc(NC(=O)c2ccc(NS(=O)(=O)CCO)cc2N2CCC3(CC2)CC3)c2nc3n(c12)CC1CC31 (centres unmarked) [Compound 92] | 7.32 | > 6.70
COc1ccc(NC(=O)c2ccc(NS(=O)(=O)CCO)cc2N2CCC3(CC2)CC3)c2nc3n(c12)CCCCC3 [Compound 96] | 7.60 | > 6.70
O=C(Nc1cccc2c3c(nn12)C1CC1C3)c1ccc(NS(=O)(=O)CCO)cc1N1CCC2(CC1)CC2 (centres unmarked) [Compound 107] | 7.00 | > 6.70
O=C(Nc1cc2ccnn2c(N2CCC(F)(F)CC2)n1)c1ccc(NS(=O)(=O)CCO)cc1N1CCC2(CC1)CC2 [Compound 109] | 7.43 | > 6.70
O=C(Nc1cccc2c1cc1n2CCCCC1)c1ccc(NS(=O)(=O)CCO)cc1N1CCC2(CC1)CC2 [Compound 115] | 7.64 | > 6.70

The next compounds have a higher pIC50 (OVCAR3 cells) than those just listed; values first:

pIC50 (OVCAR3 cells) | pIC50 (Human KIF18A (1-376aa)) | SMILES
7.74 | > 6.70 | O=C(Nc1cc(N2CCC(F)(F)CC2)n2nccc2c1)c1ccc(NS(=O)(=O)CCO)cc1N1CCC2(CC1)CC2 [Compound 81]
8.19 | > 6.70 | O=C(Nc1cccc2c1nc1n2CC2C1C2(F)F)c1ccc(NS(=O)(=O)CCO)cc1N1CCC2(CC1)CC2 (centres unmarked) [Compound 86]
8.04 | > 6.70 | O=C(Nc1cc2c(c(N3CCC(F)(F)CC3)c1)COC2)c1ccc(NS(=O)(=O)CCO)cc1N1CCC2(CC1)CC2 [Compound 101]
7.83 | > 6.70 | O=C(Nc1cc2c(c(N3CCC(F)(F)CC3)c1)CC2)c1ccc(NS(=O)(=O)CCO)cc1N1CCC2(CC1)CC2 [Compound 103]
7.83 | > 6.70 | CS(=O)(=O)Nc1ccc(C(=O)Nc2cn3ccnc3c(N3CCC(F)(F)CC3)n2)c(N2CCC3(CC2)CC3)c1 [Compound 105]
7.80 | > 6.70 | O=C(Nc1cc2ccoc2c(N2CCC(F)(F)CC2)n1)c1ccc(NS(=O)(=O)CCO)cc1N1CCC2(CC1)CC2 [Compound 106]
7.95 | > 6.70 | N#Cc1ccc(NC(=O)c2ccc(NS(=O)(=O)CCO)cc2N2CCC3(CC2)CC3)c2nc3n(c12)CC1C3C1(F)F (centres unmarked) [Compound 110]
7.82 | > 6.70 | COC(=O)c1ccc(NC(=O)c2ccc(NS(=O)(=O)CCO)cc2N2CCC3(CC2)CC3)c2nc3n(c12)CCCCC3 [Compound 112]
8.27 | > 6.70 | CCNC(=O)c1ccc(NC(=O)c2ccc(NS(=O)(=O)CCO)cc2N2CCC3(CC2)CC3)c2nc3n(c12)CCCCC3 [Compound 113]
7.97 | > 6.70 | O=C(Nc1cc2c(c(N3CC4C(C3)C4(F)F)c1)OCC2)c1ccc(NS(=O)(=O)CCO)cc1N1CCC2(CC1)CC2 (centres unmarked) [Compound 114]
